A short description of this data set: physchem. Conditions: pH 7.4.

Structures are written as SMILES.

For orientation: logD means the decadic logarithm of the distribution of all forms, ionised or not, between an organic phase and buffer at a given pH. As to `CC(C)(C)OC(=O)N1CCN(c2ccc(OCc3ccc(S(C)(=O)=O)cc3)cc2)CC1`, for the setting “octanol/water”, the log distribution coefficient (logD) was determined as 3.9.
On the same count and under the same terms, next, `CC(C)(C)OC(=O)N1CCN(c2cnc(OCc3ccc(S(C)(=O)=O)cc3)cn2)CC1`: 3.4.
With `C[C@H]1CN(c2ncc(OCc3ccc(S(C)(=O)=O)cc3)cn2)CCN1C(=O)OC(C)(C)C`, the logD (octanol/phosphate buffer) was above 3.6.
Molecule `CC(C)(C)OC(=O)N1C[C@@H]2C[C@H]1CN2c1ncc(OCc2ccc(S(C)(=O)=O)cc2)cn1` displayed a logD (octanol/phosphate buffer) of 2.8.
Where the note is “octanol/phosphate buffer”, `C[C@@H]1CN(C(=O)OC(C)(C)C)CCN1c1ncc(OCc2ccc(C#N)cc2)cn1` gave a log distribution coefficient (logD) above 3.6.
Consider `CC(C)(C)OC(=O)N1CCN(c2ncc(OCc3ccncc3C#N)cn2)CC1`, for which the logD (octanol/phosphate buffer) came out at 2.8.
As for `COc1cnccc1COc1cnc(N2CCN(C(=O)OC(C)(C)C)CC2)nc1`, where the note is “octanol/phosphate buffer”, the pH-dependent lipophilicity (logD) was determined as 3.8.
On the same count and under the same terms, next, `C[C@@H]1CN(c2nc(C3CC3)no2)CCN1c1ncc(OCc2ccncc2C#N)cn1`: 3.5.
With `C[C@@H]1CN(C(=O)OC(C)(C)C)CCN1c1ncc(OCC2CCN(S(C)(=O)=O)CC2)cn1`, the logD (octanol/phosphate buffer) stood at 3.5.
`CC(C)(C)OC(=O)N1CCN(c2ccc(OCc3ccc(S(C)(=O)=O)cc3)cn2)CC1` had a pH-dependent lipophilicity (logD) (octanol/phosphate buffer) of 3.2.
On the same count and under the same terms, next, `C[C@H]1CN(C(=O)OC(C)(C)C)CCN1c1ncc(OCc2ccc(S(C)(=O)=O)cc2)cn1`: 3.5.
The same measure, in the same setting: next, `C[C@@H]1CN(c2ncc(OCc3ccc(S(C)(=O)=O)cc3)cn2)CCN1C(=O)OC(C)(C)C`: above 3.7.
The molecule `CC(C)(C)OC(=O)N1CCC(c2ncc(OCc3ccc(S(C)(=O)=O)cc3)cn2)CC1` showed a log distribution coefficient (logD) (octanol/water) of 2.8.
Regarding `C[C@@H]1CN(C(=O)OC(C)(C)C)CCN1c1ncc(OCc2ccc(-n3cnnn3)cc2)cn1`, for the setting “octanol/phosphate buffer”, the logD is above 4.3.
The molecule `CC(C)(C)OC(=O)N1CCN(c2ncc(OCc3ccncc3)cn2)CC1` yielded a logD (octanol/phosphate buffer) of 3.4.
For the molecule `CC(C)(C)OC(=O)N1CCN(c2ccc(OCc3ccc(S(C)(=O)=O)cc3)nn2)CC1`, the logD (octanol/phosphate buffer) is 2.8.
Molecule `C[C@@H]1CN(c2nc(C(F)(F)F)no2)CCN1c1ncc(OCc2ccncc2C#N)cn1` yielded a log distribution coefficient (logD) (octanol/water) of 3.1.
Take `Cc1cc(COc2cnc(N3CCN(C(=O)OC(C)(C)C)CC3)nc2)ccn1`: the logD (octanol/phosphate buffer) came out at 3.7.
For the setting “octanol/water”, `Cc1cnccc1COc1cnc(N2CCN(C(=O)OC(C)(C)C)CC2)nc1` displayed a logD of 3.8.
